Reference: the supplement of paper PMC11616607

Legend:
Assay in all cases: drug sensitivity score (DSS) from 5-point dose-response viability curve (DSS (area-under-curve based score)); higher = more sensitive (stronger growth inhibition or killing); extreme values may be limits of the assay
Details in all cases: exposure time: 72 h; concentration range: 5 concentrations over 10,000-fold range
HOSE1C = system: HOSE1C
How it was run: (§1)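 Each cell line and drug received a drug sensitivity score from Breeze software, where higher means more sensitive. Zero stands for no response. Scores came from CellTiter-Glo viability readings of ovarian cancer and normal ovarian cells, 1,500 per well in 384-well plates, after 3 days at 37°C, 5% CO2 with drugs at five concentrations over a 10,000-fold range.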

HOSE2C = system: HOSE2C
How it was run: as §1

Kuramochi = system: Kuramochi
How it was run: as §1

COV318 = system: COV318
How it was run: as §1

COV362 = system: COV362
How it was run: as §1

Ovsaho = system: Ovsaho
How it was run: as §1

OVCAR8 = system: OVCAR8
How it was run: as §1

OV90 = system: OV90
How it was run: as §1

CAOV3 = system: CAOV3
How it was run: as §1

JHOS2 = system: JHOS2
How it was run: as §1

OVCAR5 = system: OVCAR5
How it was run: as §1

OVCAR4 = system: OVCAR4
How it was run: as §1

SMILES | drug sensitivity score (HOSE1C) | drug sensitivity score (HOSE2C) | drug sensitivity score (Kuramochi) | drug sensitivity score (COV318) | drug sensitivity score (COV362) | drug sensitivity score (Ovsaho) | drug sensitivity score (OVCAR8) | drug sensitivity score (OV90) | drug sensitivity score (CAOV3) | drug sensitivity score (JHOS2) | drug sensitivity score (OVCAR5) | drug sensitivity score (OVCAR4)
COc1cccc2c1C(=O)c1c(O)c3c(c(O)c1C2=O)C[C@@](O)(C(=O)CO)C[C@@H]3O[C@H]1C[C@H](N)[C@@H](O)[C@H](C)O1 [Epirubicin] | 9.6 | 10.3 | 4.6 | 0.7 | 1 | 7.1 | 8.9 | 5.7 | 9.9 | 5.7 | 5.1 | 2.9
CCOc1ccccc1-n1c(C(C)N2CCN(C(=O)COc3ccc(Cl)cc3)CC2)nc2ccccc2c1=O (stereo not drawn) [Erastin] | 0 | 0 | 0 | 1.9 | 1.4 | 0 | 7.9 | 1.4 | 0.9 | 0 | 0.9 | 9.1
COc1cc(OC)cc(N(CCNC(C)C)c2ccc3ncc(-c4cnn(C)c4)nc3c2)c1 [Erdafitinib] | 3.2 | 11.2 | 0 | 3.5 | 0 | 0 | 0 | 0 | 0 | 0 | 0 | 2.6
C=C1C[C@@H]2CC[C@@]34C[C@H]5O[C@H]6[C@@H](O3)[C@H]3O[C@H](CC[C@@H]3O[C@H]6[C@H]5O4)CC(=O)C[C@@H]3[C@@H](OC)[C@@H](C[C@H](O)CN)O[C@H]3C[C@H]3O[C@@H](CC[C@@H]1O2)C[C@@H](C)C3=C [Eribulin] | 25.8 | 24.3 | 12.9 | 4.2 | 7.9 | 12 | 24 | 20.3 | 25.8 | 9.1 | 20.5 | 6.3
C#Cc1cccc(Nc2ncnc3cc(OCCOC)c(OCCOC)cc23)c1 [Erlotinib] | 0 | 0.3 | 1.6 | 0.8 | 0.1 | 4.8 | 2.5 | 1.5 | 7.5 | 3 | 4.4 | 2
COc1cc([C@@H]2c3cc4c(cc3[C@@H](O[C@@H]3O[C@@H]5CO[C@@H](C)O[C@H]5[C@H](O)[C@H]3O)[C@H]3COC(=O)[C@H]23)OCO4)cc(OC)c1O [Etoposide] | 6.5 | 10.1 | 1.8 | 1.7 | 0.1 | 7 | 8.6 | 6.1 | 9.2 | 4.5 | 4.1 | 0
CO[C@H]1C[C@@H]2CC[C@@H](C)[C@@](O)(O2)C(=O)C(=O)N2CCCC[C@H]2C(=O)O[C@H]([C@H](C)C[C@@H]2CC[C@@H](OCCO)[C@H](OC)C2)CC(=O)[C@H](C)/C=C(\C)[C@@H](O)[C@@H](OC)C(=O)[C@H](C)C[C@H](C)/C=C/C=C/C=C/1C [Everolimus] | 4.3 | 6.3 | 5.9 | 2.2 | 0.6 | 4 | 5.5 | 10 | 4.8 | 4.7 | 6.2 | 2.5
C=C1C[C@@H]2[C@H](CC[C@]3(C)C(=O)CC[C@@H]23)[C@@]2(C)C=CC(=O)C=C12 [Exemestane] | 0 | 0 | 0 | 0 | 0 | 0 | 0 | 0.4 | 0 | 0 | 0 | 0
CCn1c(=O)c(-c2ccc(Cl)cc2Cl)cc2cnc(Nc3ccc(N4CCNCC4)c(F)c3)nc21 [FRAX486] | 7.6 | 12.1 | 4.3 | 4.2 | 6.3 | 7 | 3.8 | 5.5 | 4.2 | 3.7 | 4.9 | 5.1
Cc1cnc(Nc2ccc(OCCN3CCCC3)cc2)nc1Nc1cccc(S(=O)(=O)NC(C)(C)C)c1 [Fedratinib] | 7.1 | 8.5 | 7.7 | 3.7 | 6.1 | 7.4 | 7.1 | 8.8 | 6.5 | 5.3 | 7.2 | 5.2
CON(C)C(=O)N1N=C(c2cc(F)ccc2F)S[C@@]1(CCCN)c1ccccc1 [Filanesib] | 21.8 | 16.2 | 9.5 | 8.7 | 1.4 | 8.8 | 17.7 | 10.8 | 21.3 | 7.4 | 17.6 | 6.8
O=C(Nc1nc2cccc(-c3ccc(CN4CCS(=O)(=O)CC4)cc3)n2n1)C1CC1 [Filgotinib] | 0.1 | 0 | 5.1 | 3.4 | 0.2 | 2.5 | 2.5 | 3.2 | 2.3 | 1.1 | 1.8 | 2.6
CC(C)(C)NC(=O)[C@H]1CC[C@H]2[C@@H]3CC[C@H]4NC(=O)C=C[C@]4(C)[C@H]3CC[C@]12C [Finasteride] | 0 | 0 | 0 | 0 | 0 | 0 | 0 | 0 | 0 | 0 | 0 | 0
CCCCCCCCc1ccc(CCC(N)(CO)CO)cc1 [Fingolimod] | 7.4 | 5.4 | 7.5 | 7 | 6.2 | 7.6 | 6.8 | 6.2 | 6 | 5.5 | 6.4 | 7.5
